From patent US11219607B2, “Methods for suppressing cancer-related cachexia” (Ohio State Innovation Foundation, priority 2013, dated 2022) come the findings set out here.

Type in all cases: in vivo, CD2F1 mice
The test system of one assay is TNF. The experiment in a line: Serum cytokine profiling, C-26 model: TNF. The following applies: C-26 tumor-bearing mice. The text has this: (§1) Gastrocnemius muscles and sera were collected at day 17 post-cell injection from each treatment group (n=8/group). Muscle was submitted to Metabolon, Inc. (Durham, N.C.) for metabolomic analysis of 270 metabolic intermediates via proprietary mass spectrometry platforms. Serum was submitted to Eve Technologies (Alberta, Canada) for analysis of 32 cytokines using a mouse cytokine array (32-plex panel).
To shed light onto the mechanism by which AR-42 mediated its anti-cachectic effect, sera and gastrocnemius muscle from vehicle- or AR-42-treated tumor-free and C-26 tumor-bearing mice were used for cytokine profiling analysis and whole transcriptome shotgun sequencing (RNA-seq), respectively.

Assay [1] relates to global gene expression in muscle of C-26 tumor-bearing mice. Kind of assay: RNA-seq of gastrocnemius muscle, C-26 model. The method, then:
(§2) Total RNA was isolated from homogenized gastrocnemius muscles (n=3/group) with TRIzol reagent (Life Technologies, Carlsbad, Calif.) and then purified using the RNAeasy Mini Kit (Qiagen, Valencia, Calif.). qRT-PCR was performed as described previously (42) by using the Bio-Rad CFX96 Real-Time PCR Detection System with iQ SYBR Green Supermix (Bio-Rad, Hercules, Calif.). RNA-seq library generation and data analysis were performed at The Ohio State University Comprehensive Cancer Center (OSUCCC) Nucleic Acid Shared Resource.
Data analysis was conducted by using SAS 9.3 software (SAS, Inc; Cary, N.C.). For the experiments with repeated measures, data were analyzed by mixed effect models, incorporating observational dependencies across each subject. For other experiments involving independent groups, data were analyzed by ANOVA. For the time-to-event experiment (FIG. 2B), the difference in survival functions were compared by log-rank tests. Multiplicities were adjusted by Holm's method to control the overall family-wise error rate at 0.05. RNA-seq data were analyzed by using Ingenuity Pathway Analysis (IPA) software (Ingenuity Systems, Redwood City, Calif.). Only genes with >4-fold change and P<0.05 were selected for pathway analysis. […]
RNA quality was assessed on an Agilent 2100 Bioanalyzer using a Pico RNA chip and the input total RNA amount was assessed using Agilent Qubit RNA assay. […] The resultant libraries were assessed for quantity and quality using Agilent Qubit DNA assay and with PerkinElmer Labchip DNA GX analysis, respectively. All libraries were mixed in equal proportions generating pools of samples that would yield approximately 40 million passed filter reads when sequenced on Illumina HiSeq 2500 sequencer. The raw sequencing data from the Illumina HiSeq CASAVA pipeline were assessed for quality using FastQC, RNASeQC and RSeQC software. […]

The test system of a further assay is C-26 tumor-bearing mice. Kind of assay: Survival and body weight comparison of HDAC inhibitors, C-26 model. The note with it: day 21, 50 mg/kg every other day orally from day 6. On the procedure: In one aspect, tumors were established by subcutaneous injection of C-26 cells (0.5×10^6 cells in 0.1 ml) into the right flank of male CD2F1 mice (approximately 6 weeks of age; Harlan Laboratories, Indianapolis, Ind.)(11). Tumor-bearing mice, as well as tumor-free mice serving as non-cachectic controls, were randomized into groups that were treated with either AR-42 (50 mg/kg, p.o. by gavage, every other day; Arno Therapeutics, Inc., Flemington, N.J.) or vehicle (0.5% methylcellulose (w/v) and 0.1% Tween-80 (v/v) in sterile water) starting 6 days after cell injection. To investigate the effect of delayed treatment, treatments with drug and/or vehicle were started 6, 10 and 12 days after cancer cell injection.
In another aspect, the effects of AR-42 were compared to other HDAC inhibitors. […]
The effects of AR-42 were compared to other HDAC inhibitors (i.e., vorinostat and romidepsin) in C-26 tumor-bearing mice. Starting on day 6 after tumor cell injection, mice were treated continuously with AR-42 (50 mg/kg every other day, orally), vorinostat [50 mg/kg once daily, orally (13)], romidepsin [0.6 mg/kg twice weekly, i.p. (14)], or vehicle, until weight loss, as determined by daily body weight measurements and subtraction of tumor mass, reached 20% of starting weight. […]

The subject of assay [2] is gastrocnemius muscles of C-26 tumor-bearing mice. The experiment in a line: Metabolomic profiling of gastrocnemius muscle, C-26 model. The note with it: day 17, C-26 tumor-bearing mice.
From the text: as §1
With cachexia, skeletal muscles undergo complex metabolic changes in response to tumor/host-derived inflammatory and neuroendocrine stressors (1). Accordingly, we conducted metabolic profiling analysis to investigate the effect of AR-42 on cachexia-induced shifts in metabolic phenotype in skeletal muscle. Tumor-free and C-26 tumor-bearing mice were treated with vehicle or AR-42 as aforementioned, and gastrocnemius muscles were collected at day 17 for metabolomic analysis.

Another assay deals with Atrogin-1/MAFbx mRNA. The experiment in a line: qPCR of gastrocnemius muscle, C-26 model: Atrogin-1. The following applies: C-26 tumor-bearing mice, 15 days after tumor cell injection, tumor-bearing/vehicle 29.4±3.5-fold, mean±S.D. The method, then:
as §2
AR-42 was able to restore expression of Atrogin-1 (2.7±0.7-fold) and MuRF1 (1.1±0.2-fold) mRNA to basal levels […].

Assay [3] has as its system gastrocnemius muscle fibers of C-26 tumor-bearing mice. The experiment in a line: Morphometric analysis of muscle fiber size, C-26 model. The following applies: day 15, tumor-bearing/vehicle 1297.6±638.8, tumor-free control 2503.5±917.5, mean±S.D. On the procedure:
Ten-μm sections were cut from frozen skeletal muscle samples using a cryostat (Leica) and then stained with H&E. Images were captured using an Olympus BX51 microscope (Olympus America, Inc.) and muscle fiber cross-sectional areas were determined using Olympus CellSens 1.11 software. Measurements were obtained from five different sections of muscle from each of five mice from each group.
The protective effect of AR-42 against muscle wasting was manifested by the abrogation of cachexia-induced reduction in skeletal muscle fiber size. […] The prominent shift in fiber size distribution to smaller cross-sectional area in cachectic muscles of tumor-bearing/vehicle mice was reversed by AR-42 (FIG. 2A, right)

As to `CC(C)[C@H](C(=O)Nc1ccc(C(=O)NO)cc1)c1ccccc1` [AR-42, (S)—N-hydroxy-4-(3-methyl-2-phenylbutanamido)benzamide], in the assay with TNF, the “effect on serum TNF levels” value is on record as “no effect”. Also, in assay [1], the “number of downregulated genes (4-fold or greater), AR-42- versus vehicle-treated tumor-bearing mice” value is listed as 301 genes and the “number of upregulated genes (4-fold or greater), AR-42- versus vehicle-treated tumor-bearing mice” value stood at 376 genes. The “number of genes with 4-fold or greater differential expression, AR-42- versus vehicle-treated tumor-bearing mice” value in assay [1] (total) stood at 677 genes. Further, in the assay on C-26 tumor-bearing mice, the “cumulative survival (weight loss below 20% of starting weight)” value came out at 100%. In assay [2], the “cachectic phenotype of free amino acids and amino acid metabolites” value is recorded as “reversed”; the “glycogen metabolic intermediates (short-chain malto-oligosaccharides, glucose 1-phosphate)” value is given as “significantly replenished”. The “intramuscular levels of glucose and key glycolytic intermediates” value in assay [2] (lowered in cachectic muscle) is reported as “reversed these metabolic changes”. In addition, the “2-hydroxybutyrate and ophthalmate levels in muscle” value in assay [2] (to levels comparable to tumor-free mice) is “dramatically reduced”. Moreover, in the assay on Atrogin-1/MAFbx mRNA, the “Atrogin-1 mRNA level relative to tumor-free/vehicle control” value was 2.7±0.7 fold. The “mean cross-sectional area of muscle fibers” value in assay [3] is recorded as 2146.3±923.4 μm^2.
